Experimental data taken from ChEMBL document CHEMBL1154025, “Design and synthesis of BACE-1 inhibitors utilizing a tertiary hydroxyl motif as the transition state mimic” (Bioorg Med Chem Lett, 2009).

Legend:
[1] = molecular target: Beta-secretase 1 (Homo sapiens, UniProt P56817); test: Inhibition of human BACE1 expressed in Escherichia coli BL21(DE3) using Swedish mutant sequence Eu-EVNLDAEFK-Quencher substrate by homogeneous time resolved fluorescence assay
[2] = Permeability across human Caco-2 cell membrane; format: ADME, cell-based
[3] = molecular target: Cathepsin D (Homo sapiens, UniProt P07339); test: Inhibition of human liver cathepsin D
Sequence of Cathepsin D (P07339 65-162 limits assumed): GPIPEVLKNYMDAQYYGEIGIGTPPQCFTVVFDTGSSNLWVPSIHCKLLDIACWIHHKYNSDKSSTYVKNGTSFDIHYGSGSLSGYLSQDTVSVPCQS
Sequence of Cathepsin D (P07339 169-412 limits assumed): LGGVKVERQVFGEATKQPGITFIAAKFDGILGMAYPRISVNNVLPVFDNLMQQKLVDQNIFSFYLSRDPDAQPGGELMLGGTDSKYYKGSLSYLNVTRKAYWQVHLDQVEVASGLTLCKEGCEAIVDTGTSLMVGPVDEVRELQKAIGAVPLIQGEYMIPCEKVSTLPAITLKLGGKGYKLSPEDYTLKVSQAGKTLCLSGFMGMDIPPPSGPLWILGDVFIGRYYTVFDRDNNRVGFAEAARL

Sequence of Beta-secretase 1 (P56817 whole entry): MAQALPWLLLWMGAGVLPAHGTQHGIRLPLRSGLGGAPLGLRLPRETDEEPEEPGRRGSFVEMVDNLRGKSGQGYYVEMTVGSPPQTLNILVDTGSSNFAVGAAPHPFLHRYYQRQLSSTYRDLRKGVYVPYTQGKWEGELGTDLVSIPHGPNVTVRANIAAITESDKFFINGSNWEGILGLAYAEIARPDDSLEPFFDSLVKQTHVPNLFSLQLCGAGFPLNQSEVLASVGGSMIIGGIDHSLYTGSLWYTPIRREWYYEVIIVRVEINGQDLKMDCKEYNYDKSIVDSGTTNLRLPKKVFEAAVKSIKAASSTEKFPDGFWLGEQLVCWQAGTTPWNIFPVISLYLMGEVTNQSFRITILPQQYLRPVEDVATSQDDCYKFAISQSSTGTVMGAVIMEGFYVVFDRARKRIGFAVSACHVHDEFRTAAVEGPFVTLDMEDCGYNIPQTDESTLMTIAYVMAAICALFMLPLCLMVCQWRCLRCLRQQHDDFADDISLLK

Compound	IC50 [1] [µM]	Papp [2] [×10⁻⁶ cm/s]	Ki [3] [µM]
CC(C)[C@H](NC(=O)CCC(O)(CCc1ccccc1)C(=O)Nc1cc(C(=O)N[C@H](C)c2ccc(F)cc2)cc(N(C)S(C)(=O)=O)c1)C(=O)NCc1ccccc1 (some centres undefined)	> 10		
C[C@@H](NC(=O)c1cc(NC(=O)CC[C@](O)(Cc2ccccc2)C(=O)N[C@H]2c3ccccc3C[C@H]2O)cc(N(C)S(C)(=O)=O)c1)c1ccccc1	2.5		
CC(C)[C@H](NC(=O)CCC(O)(Cc1ccccc1)C(=O)Nc1cc(C(=O)N[C@H](C)c2ccc(F)cc2)cc(N(C)S(C)(=O)=O)c1)C(=O)NCc1ccc(C(=O)O)cc1 (some centres undefined)	> 10		
C[C@@H](NC(=O)c1cc(NC(=O)CC[C@@](O)(Cc2ccccc2)C(=O)N[C@H]2c3ccccc3C[C@H]2O)cc(N(C)S(C)(=O)=O)c1)c1ccccc1	4.6		
CC(C)[C@H](NC(=O)C(O)(CCC(=O)Nc1cc(C(=O)N[C@H](C)c2ccccc2)cc(N(C)S(C)(=O)=O)c1)CCc1ccccc1)C(=O)NCc1ccccc1 (some centres undefined)	0.45		
CC(C)[C@H](NC(=O)CCC(O)(Cc1ccccc1)C(=O)Nc1cc(C(=O)N[C@H](C)c2ccc(F)cc2)cc(N(C)S(C)(=O)=O)c1)C(=O)Nc1ccc(C(=O)O)cc1 (some centres undefined)	> 10		
CC(C)[C@H](NC(=O)CCC(O)(Cc1ccccc1)C(=O)Nc1cc(C(=O)N[C@H](C)c2ccc(F)cc2)cc(N(C)S(C)(=O)=O)c1)C(=O)NCc1ccccc1 (some centres undefined)	5.9		
COC(=O)c1ccc(NC(=O)[C@@H](NC(=O)CCC(O)(Cc2ccccc2)C(=O)Nc2cc(C(=O)N[C@H](C)c3ccc(F)cc3)cc(N(C)S(C)(=O)=O)c2)C(C)C)cc1 (some centres undefined)	4		
COC(=O)c1ccc(CNC(=O)[C@@H](NC(=O)CCC(O)(Cc2ccccc2)C(=O)Nc2cc(C(=O)N[C@H](C)c3ccc(F)cc3)cc(N(C)S(C)(=O)=O)c2)C(C)C)cc1 (some centres undefined)	> 10		
CC(C)[C@H](NC(=O)CCC(O)(CCc1ccccc1)C(=O)Nc1cc(C(=O)N[C@H](C)c2ccccc2)cc(N(C)S(C)(=O)=O)c1)C(=O)NCc1ccccc1 (some centres undefined)	5.6		
C[C@@H](NC(=O)c1cc(NC(=O)C(O)(CCC(=O)N[C@H]2c3ccccc3C[C@H]2O)Cc2ccccc2)cc(N(C)S(C)(=O)=O)c1)c1ccc(F)cc1 (some centres undefined)	> 10		
CC(C)[C@H](NC(=O)C(O)(CCC(=O)Nc1cc(C(=O)N[C@H](C)c2ccccc2)cc(N(C)S(C)(=O)=O)c1)CCc1ccccc1)C(=O)Nc1ccccc1 (single isomer, unassigned)	0.32		
C[C@@H](NC(=O)c1cc(NC(=O)CCC(O)(CCc2ccccc2)C(=O)N[C@H]2c3ccccc3C[C@H]2O)cc(N(C)S(C)(=O)=O)c1)c1ccccc1 (stereo in doubt; 36-(A))	0.57		
C[C@@H](NC(=O)c1cc(NC(=O)CCC(O)(CCc2ccccc2)C(=O)N[C@H]2c3ccccc3C[C@H]2O)cc(N(C)S(C)(=O)=O)c1)c1ccccc1 (stereo in doubt; 37-(B))	0.25	< 1	> 5
CC(C)[C@H](NC(=O)C(O)(CCC(=O)Nc1cc(C(=O)N[C@H](C)c2ccccc2)cc(N(C)S(C)(=O)=O)c1)CCc1ccccc1)C(=O)Nc1ccccc1 (stereo in doubt; 39-(A))	0.23	1.2	> 5
